Source: US8563714B2, “Bridged spiro [2.4] heptane derivatives as ALX receptor and/or FPRL2 agonists” (Actelion Pharmaceuticals Ltd., priority 2009, dated 2013)

Tests used:
human ALX receptor = target: T1, human ALX receptor (Homo sapiens, UniProt P25090); test: Intracellular calcium measurements (FLIPR), agonistic activity in HEK293-hALXR-Gα16 cells; assay type: cell-based; conditions: Fluo-4 calcium FLIPR, normalized to WKYMVm 10 nM
T1 construct: expressed in transfected cells; host or cells: HEK293 (HEK293-hALXR-Gα16)
T1 sequence (P25090 1-351): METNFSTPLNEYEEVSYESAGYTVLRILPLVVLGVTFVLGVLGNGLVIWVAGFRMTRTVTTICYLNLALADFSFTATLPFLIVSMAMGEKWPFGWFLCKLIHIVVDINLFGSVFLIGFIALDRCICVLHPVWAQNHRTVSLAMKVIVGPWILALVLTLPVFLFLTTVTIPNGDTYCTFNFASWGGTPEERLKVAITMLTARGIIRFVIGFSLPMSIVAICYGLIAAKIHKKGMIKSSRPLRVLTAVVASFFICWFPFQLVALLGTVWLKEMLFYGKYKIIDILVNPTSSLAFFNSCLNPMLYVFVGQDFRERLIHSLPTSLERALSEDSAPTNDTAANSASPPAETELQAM
Method in brief: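 Agonist-induced calcium flux was recorded by FLIPR (488/540 nm) in HEK293-hALXR-Gα16 cells pre-loaded with Fluo-4 AM (1 μM, 60 min, 37°C). Peak signal above baseline, after subtracting buffer addition, was expressed relative to WKYMVm at 10 nM final.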

human FPRL2 = target: T2, human FPRL2 (Homo sapiens, UniProt P25089); test: Intracellular calcium measurements (FLIPR), agonistic activity in HEK293-hFPRL2-Gα16 cells; assay type: cell-based; conditions: Fluo-4 calcium FLIPR, normalized to GLY14-Humanin 100 nM
T2 construct: expressed in transfected cells; host or cells: HEK293 (HEK293-hFPRL2-Gα16)
T2 sequence (P25089 1-353): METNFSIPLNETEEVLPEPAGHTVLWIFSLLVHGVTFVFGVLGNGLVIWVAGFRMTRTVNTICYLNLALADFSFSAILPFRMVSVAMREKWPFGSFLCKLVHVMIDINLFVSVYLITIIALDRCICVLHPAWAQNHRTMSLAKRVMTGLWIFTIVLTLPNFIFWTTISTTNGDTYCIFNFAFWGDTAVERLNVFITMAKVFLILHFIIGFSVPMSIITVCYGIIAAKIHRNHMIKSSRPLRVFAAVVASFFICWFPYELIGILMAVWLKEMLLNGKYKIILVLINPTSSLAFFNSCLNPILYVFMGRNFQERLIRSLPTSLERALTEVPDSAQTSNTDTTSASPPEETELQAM
Method in brief: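 Peak values after baseline subtraction are expressed relative to 100 nM Gly14-Humanin; compounds diluted in assay buffer from 10 mM DMSO stocks.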

EC50 (human ALX receptor) [nM]	EC50 (human FPRL2) [nM]	SMILES
0.72	95	O=C(NCCOCCN1CCCC1)[C@H]1[C@H](C(=O)Nc2ccc(Br)cc2)[C@@H]2C=C[C@H]1C21CC1 [Example 215, (5R)—N^5-(4-Bromophenyl)-(6R)—N^6-(2-(2-(pyrrolidin-1-yl)ethoxy)ethyl)-(4S,7R)-[4,7-ethenylene-spiro[2.4]heptane]-5,6-dicarboxamide]
200	2980	CCCN(CC1CC1)C(=O)[C@H]1[C@H](C(=O)Nc2ccc(Br)cc2)[C@@H]2C=C[C@H]1C21CC1 (racemic) [Example 91, (5R*)—N^5-(4-Bromophenyl)-(6R*)—N^6-propyl-N^6-(cyclopropylmethyl)-(4S*,7R*)-[4,7-ethenylene-spiro[2.4]heptane]-5,6-dicarboxamide]
0.45	230	NCCCCCNC(=O)[C@H]1[C@H](C(=O)Nc2ncc(Br)s2)[C@@H]2CC[C@H]1C21CC1 [Example 334, (5R)—N^5-(5-Bromo-thiazol-2-yl)-(6R)—N^6-(5-amino-pentyl)-(4S,7R)-[4,7-ethylene-spiro[2.4]heptane]-5,6-dicarboxamide]
0.89	12	CN1CCCN(CCCCNC(=O)[C@H]2[C@H](C(=O)Nc3ccc(Br)cc3)[C@@H]3C=C[C@H]2C32CC2)CC1 [Example 212, (5R)—N^5-(4-Bromophenyl)-(6R)—N^6-(4-(4-methyl-1,4-diazepan-1-yl)butyl)-(4S,7R)-[4,7-ethenylene-spiro[2.4]heptane]-5,6-dicarboxamide]
9.6	6360	CN(C)CCCNC(=O)[C@H]1[C@H](C(=O)Nc2ccc(Br)cc2)[C@@H]2C=C[C@H]1C21CC1 (racemic) [Example 52, (5R*)—N^5-(4-Bromophenyl)-(6R*)—N^6-(3-dimethyl-amino-propyl)-(4S*,7R*)-[4,7-ethenylene-spiro[2.4]heptane]-5,6-dicarboxamide]
9.4	296	O=C(NCCCCN1CCCC1)[C@H]1[C@H](C(=O)Nc2c(F)cc(Br)cc2F)[C@@H]2C=C[C@H]1C21CC1 [Example 315, (5R)—N^5-(4-Bromo-2,6-difluorophenyl)-(6R)—N^6-(4-pyrrolidino-butyl)-(4S,7R)-[4,7-ethenylene-spiro[2.4]heptane]-5,6-dicarboxamide]
98	2700	CNCCNC(=O)[C@H]1[C@H](C(=O)Nc2ncc(Br)s2)[C@@H]2C=C[C@H]1C21CC1 (racemic) [Example 301, (5R*)—N^5-(5-Bromo-thiazol-2-yl)-(6R*)—N^6-(2-methylamino-ethyl)-(4S*,7R*)-[4,7-ethenylene-spiro[2.4]heptane]-5,6-dicarboxamide]
13	264	O=C(NCCCCN1CCCC1)[C@H]1[C@H](C(=O)NCc2ccc(Br)cc2F)[C@@H]2C=C[C@H]1C21CC1 [Example 284, (5R)—N^5-(4-Bromo-2-fluorophenyl-methyl)-(6R)—N^6-(4-pyrrolidino-butyl)-(4S,7R)-[4,7-ethenylene-spiro[2.4]heptane]-5,6-dicarboxamide]
7.1	1710	O=C(NCCCn1cccn1)[C@H]1[C@H](C(=O)Nc2ccc(Br)cc2)[C@@H]2C=C[C@H]1C21CC1 (racemic) [Example 37, (5R*)—N^5-(4-Bromophenyl)-(6R*)—N^6-(3-1H-pyrazol-1-yl-propyl)-(4S*,7R*)-[4,7-ethenylene-spiro[2.4]heptane]-5,6-dicarboxamide]
61	4380	O=C(NCCc1ccccn1)[C@H]1[C@H](C(=O)Nc2ccc(Br)cc2)[C@@H]2C=C[C@H]1C21CC1 (racemic) [Example 70, (5R*)—N^5-(4-Bromophenyl)-(6R*)—N^6-(2-pyridin-2-yl-ethyl)-(4S*,7R*)-[4,7-ethenylene-spiro[2.4]heptane]-5,6-dicarboxamide]
100	8730	NC(=O)C1CCCCC1NC(=O)C1C(C(=O)Nc2ccc(Br)cc2)C2C=CC1C21CC1 (mixture of isomers) [Example 81, (5R*)—N^5-(4-Bromophenyl)-(6R*)—N^6-(2-carbamoyl-cyclohexyl)-(4S*,7R*)-[4,7-ethenylene-spiro[2.4]heptane]-5,6-dicarboxamide]
6.7	11500	N#CCNC(=O)[C@H]1[C@H](C(=O)Nc2ccc(Br)cc2)[C@@H]2C=C[C@H]1C21CC1 (racemic) [Example 36, (5R*)—N^5-(4-Bromophenyl)-(6R*)—N^6-(cyano-methyl)-(4S*,7R*)-[4,7-ethenylene-spiro[2.4]heptane]-5,6-dicarboxamide]
18	6680	O=C(NCCCn1cncn1)[C@H]1[C@H](C(=O)Nc2ccc(Br)cc2)[C@@H]2C=C[C@H]1C21CC1 (racemic) [Example 55, (5R*)—N^5-(4-Bromophenyl)-(6R*)—N^6-(3-1H-[1,2,4]-triazol-1-yl-propyl)-(4S*,7R*)-[4,7-ethenylene-spiro[2.4]heptane]-5,6-dicarboxamide]
216	47	O=C(NCCCc1nc2ccccc2[nH]1)[C@H]1[C@H](C(=O)NCc2ccc(Br)cc2)[C@@H]2C=C[C@H]1C21CC1 (racemic) [Example 249, (5R*)—N^5-(4-Bromo-phenyl-methyl)-(6R*)—N^6-(3-(1H-benzoimidazol-2-yl)-propyl)-(4S*,7R*)-[4,7-ethenylene-spiro[2.4]heptane]-5,6-dicarboxamide]
570	332	Cc1nc2cc(NC(=O)[C@H]3[C@H](C(=O)NCCCCN4CCCC4)[C@H]4C=C[C@@H]3C43CC3)ccc2s1 (racemic) [Example 138, (5R*)—N^5-(2-Methyl-benzothiazol-5-yl)-(6R*)—N^6-(4-pyrrolidin-1-yl-butyl)-(4S*,7R*)-[4,7-ethenylene-spiro[2.4]heptane]-5,6-dicarboxamide]
8440	110	O=C(NCCCCN1CCCC1)[C@H]1[C@H](C(=O)Nc2nc(-c3ccc(Cl)cc3)cs2)[C@@H]2C=C[C@H]1C21CC1 (racemic) [Example 150, (5R*)—N^5-(4-(4-Chlorophenyl)-thiazol-2-yl)-(6R*)—N^6-(4-pyrrolidin-1-yl-butyl)-(4S*,7R*)-[4,7-ethenylene-spiro[2.4]heptane]-5,6-dicarboxamide]
2.7	2860	O=C(NCCF)[C@H]1[C@H](C(=O)Nc2ccc(Br)cc2)[C@@H]2C=C[C@H]1C21CC1 (racemic) [Example 20, (5R*)—N^5-(4-Bromophenyl)-(6R*)—N^6-(2-fluoro-ethyl)-(4S*,7R*)-[4,7-ethenylene-spiro[2.4]heptane]-5,6-dicarboxamide]
7.8	891	O=C(NCCCCN1CCCC1)C1C(C(=O)Nc2ccc(Cl)nc2)C2C=CC1C21CC1 (racemic) [Example 116, (5R*)—N^5-(2-Chloro-pyridin-5-yl)-(6R*)—N^6-(4-pyrrolidin-1-yl-butyl)-(4S*,7R*)-[4,7-ethenylene-spiro[2.4]heptane]-5,6-dicarboxamide]
1.6	214	O=C(NCCCCN1CCCC1)[C@H]1[C@H](C(=O)Nc2ccc(Cl)nc2)[C@@H]2C=C[C@H]1C21CC1 [Example 289, (5R)—N^5-(2-Chloro-pyridin-5-yl)-(6R)—N^6-(4-pyrrolidino-butyl)-(4S,7R)-[4,7-ethenylene-spiro[2.4]heptane]-5,6-dicarboxamide]
6.1	16100	O=C(NCCO)[C@H]1[C@H](C(=O)Nc2ccc(Br)cc2)[C@@H]2C=C[C@H]1C21CC1 (racemic) [Example 34, (5R*)—N^5-(4-Bromophenyl)-(6R*)—N^6-(2-hydroxy-ethyl)-(4S*,7R*)-[4,7-ethenylene-spiro[2.4]heptane]-5,6-dicarboxamide]
4.4	516	O=C(NCCCCN1CCC(F)(F)C1)[C@H]1[C@H](C(=O)Nc2ccc(Br)cc2)[C@@H]2C=C[C@H]1C21CC1 [Example 401, (5R)—N^5-(4-Bromophenyl)-(6R)—N^6-(4-(3,3-difluoropyrrolidin-1-yl)butyl)-(4S,7R)-[4,7-ethenylene-spiro[2.4]heptane]-5,6-dicarboxamide]

SMILES	EC50 (human ALX receptor) [nM]	EC50 (human FPRL2) [nM]
CC(C)(C)OC(=O)NCc1cccc(CNC(=O)[C@H]2[C@H](C(=O)Nc3ccc(Br)cc3)[C@@H]3C=C[C@H]2C32CC2)c1 (racemic) [Example 90, (5R*)—N^5-(4-Bromophenyl)-(6R*)—N^6-{[(3-N-tert-butoxycarbonyl-aminomethyl)-phenyl]-methyl}-(4S*,7R*)-[4,7-ethenylene-spiro[2.4]heptane]-5,6-dicarboxamide]	194	2260
